ChEMBL document CHEMBL2390917, “Synthesis and biological evaluation of 2-(5-methyl-4-phenyl-2-oxopyrrolidin-1-yl)-acetamide stereoisomers as novel positive allosteric modulators of sigma-1 receptor” (Bioorg Med Chem, 2013)
Calls of active or inactive are those of the source. No cut-off for these calls is given here.

Key:
[1] = tested on: Mus musculus; experiment: Toxicity in ICR mouse assessed as effect on locomotor activity measured moved distance per 4 mins at 1 mg/kg, ip after 60 mins by open field test (reference value: 623 136 cm); type: organism-based; set-up: dose 1 mg/kg, route intraperitoneal; details: in vivo
[2] = molecular target: C-C chemokine receptor type 1 (Homo sapiens) (UniProt P32246); experiment: Binding affinity to human CCR1 at 10 uM by radioligand displacement assay relative to control
[3] = tested on: Mus musculus; experiment: Antiamnesic activity in ICR mouse scopolamine-induced memory impairment model assessed as increase in retention latency at 10 mg/kg, ip administered 60 mins prior to scopolamine challenge measured after 40 mins by passive avoidance test relative to scopolamine-treated control; type: functional; details: route intraperitoneal
[4] = organism: Homo sapiens; experiment: Binding affinity to bombesin receptor (unknown origin) at 10 uM by radioligand displacement assay relative to control
[5] = organism: Homo sapiens; experiment: Binding affinity to sodium channel site 2 (unknown origin) at 10 uM by radioligand displacement assay relative to control
[6] = molecular target: Cholecystokinin receptor type A (Homo sapiens) (UniProt P32238); experiment: Binding affinity to human CCK1 receptor at 10 uM by radioligand displacement assay relative to control
[7] = molecular target: D(4) dopamine receptor (Homo sapiens) (UniProt P21917); experiment: Binding affinity to human dopamine D4.4 receptor at 10 uM by radioligand displacement assay relative to control
[8] = molecular target: voltage-gated potassium channel (Homo sapiens, UniProt O43525+O43526+O95259+P16389+P17658+P22001+P22459+P22460+P48547+P51787+P56696+Q03721+Q09470+Q12809+Q14003+Q14721+Q16322+Q6PIU1+Q8NCM2+Q8TAE7+Q8TDN1+Q8TDN2+Q92953+Q96KK3+Q96L42+Q96PR1+Q96RP8+Q9BQ31+Q9H252+Q9H3M0+Q9NR82+Q9NS40+Q9NSA2+Q9NZV8+Q9UIX4+Q9UJ96+Q9UK17+Q9ULD8+Q9ULS6+Q9UQ05); experiment: Binding affinity to voltage-gated potassium channel (unknown origin) at 10 uM by radioligand displacement assay relative to control; type: protein assay
[9] = molecular target: 5-hydroxytryptamine receptor 7 (Homo sapiens) (UniProt P34969); experiment: Binding affinity to human 5-HT7 receptor at 10 uM by radioligand displacement assay relative to control
[10] = molecular target: Adrenergic receptor alpha-1 (Homo sapiens) (UniProt P35348+P25100+P35368); experiment: Binding affinity to adrenergic alpha1 receptor (unknown origin) at 10 uM by radioligand displacement assay relative to control
[11] = tested on: Mus musculus; experiment: Toxicity in ICR mouse assessed as effect on locomotor activity measured moved distance per 4 mins at 10 mg/kg, ip after 120 mins by open field test (reference value: 578 126 cm); type: organism-based; set-up: dose 10 mg/kg, route intraperitoneal; details: in vivo
[12] = molecular target: Platelet-derived growth factor receptor (Homo sapiens) (UniProt P09619+P16234); experiment: Binding affinity to PDGF receptor (unknown origin) at 10 uM by radioligand displacement assay relative to control; type: protein-complex assay
[13] = molecular target: B2 bradykinin receptor (Homo sapiens) (UniProt P30411); experiment: Binding affinity to human bradykinin B2 receptor at 10 uM by radioligand displacement assay relative to control
[14] = molecular target: Alpha-2A adrenergic receptor (Homo sapiens) (UniProt P08913); experiment: Binding affinity to adrenergic alpha2 receptor (unknown origin) at 10 uM by radioligand displacement assay relative to control
[15] = tested on: Mus musculus; experiment: Cognitive enhancing effect in ip dosed ICR mouse assessed as increase in retention latency administered 60 mins prior to testing measured after 24 hrs by passive avoidance test; type: functional, organism-based
[16] = molecular target: Sigma non-opioid intracellular receptor 1 (Rattus norvegicus) (UniProt Q9R0C9); experiment: Positive allosteric modulation of Wistar rat sigma 1 receptor assessed as potentiation of PB-28 effect on electrically-stimulated vas deferens contraction at 10 uM preincubated for 10 mins followed by PB-28 addition
[17] = molecular target: Delta-type opioid receptor (Homo sapiens) (UniProt P41143); experiment: Binding affinity to delta opioid receptor (unknown origin) at 10 uM by radioligand displacement assay relative to control
[18] = molecular target: C-X-C chemokine receptor type 2 (Homo sapiens) (UniProt P25025); experiment: Binding affinity to human CXCR2 at 10 uM by radioligand displacement assay relative to control
[19] = molecular target: Histamine H1 receptor (Homo sapiens) (UniProt P35367); experiment: Binding affinity to human histamine H1 receptor at 10 uM by radioligand displacement assay relative to control
[20] = organism: Homo sapiens; experiment: Binding affinity to PCP receptor (unknown origin) at 10 uM by radioligand displacement assay relative to control
[21] = tested on: Mus musculus; experiment: Toxicity in ICR mouse assessed as effect on locomotor activity measured moved distance per 4 mins at 10 mg/kg, ip after 240 mins by open field test (reference value: 398 70 cm); type: organism-based; set-up: dose 10 mg/kg, route intraperitoneal; details: in vivo
[22] = molecular target: Gastrin/cholecystokinin type B receptor (Homo sapiens) (UniProt P32239); experiment: Binding affinity to human CCK2 receptor at 10 uM by radioligand displacement assay relative to control
[23] = molecular target: Melatonin receptor type 1A (Homo sapiens) (UniProt P48039); experiment: Binding affinity to human ML1A receptor at 10 uM by radioligand displacement assay relative to control
[24] = molecular target: Muscarinic acetylcholine receptor M1 (Homo sapiens) (UniProt P11229); experiment: Binding affinity to human muscarinic M1 receptor at 10 uM by radioligand displacement assay relative to control
[25] = molecular target: Adrenergic receptor alpha-2 (Homo sapiens) (UniProt P08913+P18825+P18089); experiment: Binding affinity to human adrenergic alpha2 receptor at 10 uM by radioligand displacement assay relative to control
[26] = tested on: Mus musculus; experiment: Toxicity in ICR mouse assessed as effect on locomotor activity measured moved distance per 4 mins at 100 mg/kg, ip after 120 mins by open field test (reference value: 578 126 cm); type: organism-based; set-up: dose 100 mg/kg, route intraperitoneal; details: in vivo
[27] = tested on: Mus musculus; experiment: Toxicity in ICR mouse assessed as effect on locomotor activity measured moved distance per 4 mins at 1 mg/kg, ip after 180 mins by open field test (reference value: 436 125 cm); type: organism-based; set-up: dose 1 mg/kg, route intraperitoneal; details: in vivo
[28] = molecular target: Melanocortin receptor 4 (Homo sapiens) (UniProt P32245); experiment: Binding affinity to human MC4 receptor at 10 uM by radioligand displacement assay relative to control
[29] = molecular target: Somatostatin receptor type 1 (Homo sapiens) (UniProt P30872); experiment: Binding affinity to Somatostatin receptor type 1 (unknown origin) at 10 uM by radioligand displacement assay relative to control
[30] = tested on: Mus musculus; experiment: Toxicity in ICR mouse assessed as effect on locomotor activity measured moved distance per 4 mins at 10 mg/kg, ip after 60 mins by open field test (reference value: 623 136 cm); type: organism-based; set-up: dose 10 mg/kg, route intraperitoneal; details: in vivo
[31] = tested on: Mus musculus; experiment: Toxicity in ICR mouse assessed as effect on locomotor activity measured moved distance per 4 mins at 100 mg/kg, ip after 180 mins by open field test (reference value: 436 125 cm); type: organism-based; set-up: dose 100 mg/kg, route intraperitoneal; details: in vivo
[32] = tested on: Mus musculus; experiment: Toxicity in ICR mouse assessed as effect on locomotor activity measured moved distance per 4 mins at 10 mg/kg, ip after 180 mins by open field test (reference value: 436 125 cm); type: organism-based; set-up: dose 10 mg/kg, route intraperitoneal; details: in vivo

Alpha-2A adrenergic receptor (Homo sapiens), sequence (P08913 whole entry): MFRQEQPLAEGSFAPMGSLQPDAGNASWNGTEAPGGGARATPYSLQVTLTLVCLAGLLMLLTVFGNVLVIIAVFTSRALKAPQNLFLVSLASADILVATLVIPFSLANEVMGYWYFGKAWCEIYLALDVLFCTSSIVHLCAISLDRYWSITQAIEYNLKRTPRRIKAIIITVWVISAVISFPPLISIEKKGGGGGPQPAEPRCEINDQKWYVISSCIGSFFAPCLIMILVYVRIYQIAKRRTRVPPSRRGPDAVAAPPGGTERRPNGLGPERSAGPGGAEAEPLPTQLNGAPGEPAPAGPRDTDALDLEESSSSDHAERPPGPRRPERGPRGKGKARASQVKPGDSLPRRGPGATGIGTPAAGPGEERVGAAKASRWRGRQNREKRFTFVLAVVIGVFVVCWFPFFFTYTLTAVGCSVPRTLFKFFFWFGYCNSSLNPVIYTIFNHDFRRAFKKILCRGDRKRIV
Histamine H1 receptor (Homo sapiens), sequence (P35367 whole entry): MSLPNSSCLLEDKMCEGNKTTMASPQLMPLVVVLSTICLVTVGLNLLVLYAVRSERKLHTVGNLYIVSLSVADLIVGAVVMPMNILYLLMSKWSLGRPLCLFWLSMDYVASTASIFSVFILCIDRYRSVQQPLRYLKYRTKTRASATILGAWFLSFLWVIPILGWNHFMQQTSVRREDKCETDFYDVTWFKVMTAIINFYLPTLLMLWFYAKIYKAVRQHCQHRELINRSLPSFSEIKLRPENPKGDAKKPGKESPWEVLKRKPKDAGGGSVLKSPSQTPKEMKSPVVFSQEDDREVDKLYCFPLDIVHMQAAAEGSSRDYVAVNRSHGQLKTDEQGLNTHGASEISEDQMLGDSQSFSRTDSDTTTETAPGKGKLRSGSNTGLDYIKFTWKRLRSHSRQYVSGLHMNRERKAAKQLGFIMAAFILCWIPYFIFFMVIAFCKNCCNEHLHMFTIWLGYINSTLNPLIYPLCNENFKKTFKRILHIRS
Gastrin/cholecystokinin type B receptor (Homo sapiens), sequence (P32239 whole entry): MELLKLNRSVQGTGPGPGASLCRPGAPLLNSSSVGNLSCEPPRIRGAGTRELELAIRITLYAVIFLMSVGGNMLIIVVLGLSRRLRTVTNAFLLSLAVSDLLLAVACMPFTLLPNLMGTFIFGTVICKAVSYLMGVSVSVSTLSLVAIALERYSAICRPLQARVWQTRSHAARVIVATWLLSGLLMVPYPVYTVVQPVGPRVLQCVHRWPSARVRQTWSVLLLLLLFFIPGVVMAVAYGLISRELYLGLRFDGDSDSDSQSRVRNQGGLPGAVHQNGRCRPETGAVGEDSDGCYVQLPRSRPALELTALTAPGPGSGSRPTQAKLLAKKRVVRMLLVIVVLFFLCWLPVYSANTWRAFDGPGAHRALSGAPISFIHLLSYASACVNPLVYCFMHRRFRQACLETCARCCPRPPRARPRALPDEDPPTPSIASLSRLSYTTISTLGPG
C-X-C chemokine receptor type 2 (Homo sapiens), sequence (P25025 whole entry): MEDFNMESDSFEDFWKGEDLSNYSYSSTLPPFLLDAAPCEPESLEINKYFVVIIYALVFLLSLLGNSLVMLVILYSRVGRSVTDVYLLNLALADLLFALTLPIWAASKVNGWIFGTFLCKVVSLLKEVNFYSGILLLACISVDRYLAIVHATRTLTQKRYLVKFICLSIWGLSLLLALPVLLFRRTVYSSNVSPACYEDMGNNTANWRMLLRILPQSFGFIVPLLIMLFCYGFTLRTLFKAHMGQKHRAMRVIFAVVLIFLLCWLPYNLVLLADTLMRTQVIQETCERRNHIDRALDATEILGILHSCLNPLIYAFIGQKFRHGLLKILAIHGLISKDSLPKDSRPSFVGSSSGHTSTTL
Delta-type opioid receptor (Homo sapiens), sequence (P41143 whole entry): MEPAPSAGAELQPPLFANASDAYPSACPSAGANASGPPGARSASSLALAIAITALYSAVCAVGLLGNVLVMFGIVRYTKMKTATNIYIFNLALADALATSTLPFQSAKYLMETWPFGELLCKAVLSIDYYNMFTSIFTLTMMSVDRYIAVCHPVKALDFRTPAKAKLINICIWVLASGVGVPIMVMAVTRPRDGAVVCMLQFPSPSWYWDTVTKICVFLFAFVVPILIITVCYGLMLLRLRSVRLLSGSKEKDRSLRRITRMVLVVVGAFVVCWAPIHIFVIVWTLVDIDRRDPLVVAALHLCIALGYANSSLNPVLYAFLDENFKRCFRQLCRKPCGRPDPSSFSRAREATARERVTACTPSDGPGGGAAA
Somatostatin receptor type 1 (Homo sapiens), sequence (P30872 whole entry): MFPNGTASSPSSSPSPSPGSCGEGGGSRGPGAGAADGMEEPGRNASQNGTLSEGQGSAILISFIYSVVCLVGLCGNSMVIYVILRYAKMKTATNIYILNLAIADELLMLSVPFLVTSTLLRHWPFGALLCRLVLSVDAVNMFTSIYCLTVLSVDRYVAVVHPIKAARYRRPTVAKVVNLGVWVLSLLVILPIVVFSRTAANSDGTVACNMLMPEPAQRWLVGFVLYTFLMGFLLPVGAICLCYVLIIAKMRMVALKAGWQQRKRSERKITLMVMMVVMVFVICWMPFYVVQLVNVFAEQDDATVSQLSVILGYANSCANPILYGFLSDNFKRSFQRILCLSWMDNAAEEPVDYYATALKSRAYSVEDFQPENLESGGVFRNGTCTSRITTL
5-hydroxytryptamine receptor 7 (Homo sapiens), sequence (P34969 whole entry): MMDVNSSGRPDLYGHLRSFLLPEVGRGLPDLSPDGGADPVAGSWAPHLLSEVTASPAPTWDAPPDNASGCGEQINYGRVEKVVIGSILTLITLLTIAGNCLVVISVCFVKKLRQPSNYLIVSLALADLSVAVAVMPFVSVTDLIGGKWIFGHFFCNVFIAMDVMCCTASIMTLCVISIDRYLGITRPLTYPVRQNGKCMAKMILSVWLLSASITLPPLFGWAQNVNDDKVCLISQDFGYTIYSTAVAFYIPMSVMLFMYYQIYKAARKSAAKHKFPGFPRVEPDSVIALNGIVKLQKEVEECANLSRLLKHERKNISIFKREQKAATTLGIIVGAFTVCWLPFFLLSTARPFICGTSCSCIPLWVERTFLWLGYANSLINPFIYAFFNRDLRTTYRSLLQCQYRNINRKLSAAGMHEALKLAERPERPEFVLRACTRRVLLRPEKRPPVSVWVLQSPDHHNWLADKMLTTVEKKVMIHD
Cholecystokinin receptor type A (Homo sapiens), sequence (P32238 whole entry): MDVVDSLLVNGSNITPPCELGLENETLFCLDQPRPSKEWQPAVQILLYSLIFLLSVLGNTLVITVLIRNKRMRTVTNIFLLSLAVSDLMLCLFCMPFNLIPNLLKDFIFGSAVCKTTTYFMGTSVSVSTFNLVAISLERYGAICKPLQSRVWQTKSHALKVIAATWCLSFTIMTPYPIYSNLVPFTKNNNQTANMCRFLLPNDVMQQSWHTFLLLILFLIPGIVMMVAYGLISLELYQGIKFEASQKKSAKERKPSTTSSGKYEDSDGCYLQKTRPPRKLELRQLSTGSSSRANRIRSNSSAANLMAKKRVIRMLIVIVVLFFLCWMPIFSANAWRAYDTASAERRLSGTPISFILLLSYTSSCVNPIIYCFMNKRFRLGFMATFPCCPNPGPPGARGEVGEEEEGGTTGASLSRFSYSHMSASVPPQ
B2 bradykinin receptor (Homo sapiens), sequence (P30411 whole entry): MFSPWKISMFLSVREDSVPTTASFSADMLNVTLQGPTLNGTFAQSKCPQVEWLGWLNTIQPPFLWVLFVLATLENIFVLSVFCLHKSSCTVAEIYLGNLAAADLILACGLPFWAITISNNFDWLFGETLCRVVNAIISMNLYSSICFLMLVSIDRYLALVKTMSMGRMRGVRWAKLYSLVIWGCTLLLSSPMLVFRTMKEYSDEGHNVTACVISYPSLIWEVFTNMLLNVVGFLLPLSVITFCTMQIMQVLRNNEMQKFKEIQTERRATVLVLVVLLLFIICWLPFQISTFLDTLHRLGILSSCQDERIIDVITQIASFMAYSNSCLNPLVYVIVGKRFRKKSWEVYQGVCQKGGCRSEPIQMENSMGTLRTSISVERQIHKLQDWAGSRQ
Sigma non-opioid intracellular receptor 1 (Rattus norvegicus), sequence (Q9R0C9 whole entry): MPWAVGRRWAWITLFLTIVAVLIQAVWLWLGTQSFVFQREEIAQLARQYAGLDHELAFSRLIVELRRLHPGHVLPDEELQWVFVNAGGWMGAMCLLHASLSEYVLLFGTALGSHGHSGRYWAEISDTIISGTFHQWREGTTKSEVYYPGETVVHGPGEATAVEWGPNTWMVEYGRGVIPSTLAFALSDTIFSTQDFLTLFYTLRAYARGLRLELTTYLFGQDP
Melatonin receptor type 1A (Homo sapiens), sequence (P48039 whole entry): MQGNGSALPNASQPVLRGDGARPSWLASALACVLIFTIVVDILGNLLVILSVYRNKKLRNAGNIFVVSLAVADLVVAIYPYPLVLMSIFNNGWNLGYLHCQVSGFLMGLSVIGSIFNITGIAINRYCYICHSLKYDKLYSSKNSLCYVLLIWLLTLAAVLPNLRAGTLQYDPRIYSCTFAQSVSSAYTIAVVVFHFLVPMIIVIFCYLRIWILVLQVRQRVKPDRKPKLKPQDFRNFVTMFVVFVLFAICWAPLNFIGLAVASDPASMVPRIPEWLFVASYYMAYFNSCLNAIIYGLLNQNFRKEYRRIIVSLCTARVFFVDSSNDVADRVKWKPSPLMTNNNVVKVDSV
Melanocortin receptor 4 (Homo sapiens), sequence (P32245 whole entry): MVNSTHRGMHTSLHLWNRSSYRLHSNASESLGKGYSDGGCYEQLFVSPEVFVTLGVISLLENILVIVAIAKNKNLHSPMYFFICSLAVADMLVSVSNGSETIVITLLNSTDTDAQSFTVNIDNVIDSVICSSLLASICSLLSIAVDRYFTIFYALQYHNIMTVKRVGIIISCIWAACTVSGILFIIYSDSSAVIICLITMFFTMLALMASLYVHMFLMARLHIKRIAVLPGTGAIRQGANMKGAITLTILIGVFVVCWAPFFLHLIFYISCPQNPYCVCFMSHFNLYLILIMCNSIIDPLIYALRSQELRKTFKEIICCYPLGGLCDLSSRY

Q: Which results are given for `C[C@H]1[C@@H](c2ccccc2)CC(=O)N1CC(N)=O`?
A: Activity [1]: 871 cm; inhibition [2]: -5%; Activity [3]: 209%; inhibition [4]: -5%; inhibition [5]: 5%; inhibition [6]: 9%; inhibition [7]: -3%; inhibition at 10 µM [8]: -2%; inhibition [9]: -4%; inhibition [10]: -5%; Activity [11]: 472 cm; inhibition [12]: -6%; inhibition [13]: 3%; inhibition [14]: -4%; Activity [15]: Dose-dependent effect; Activity [16]: inactive; inhibition [17]: -4%; inhibition [18]: 2%; inhibition [19]: -7%; inhibition [20]: 6%; Activity [21]: 359 cm; inhibition [22]: 8%; inhibition [23]: -6%; inhibition [24]: -4%; inhibition [25]: -2%; Activity [26]: 470 cm; Activity [27]: 559 cm; inhibition [28]: 4%; inhibition [29]: -5%; Activity [30]: 640 cm; Activity [31]: 450 cm; Activity [32]: 406 cm
